Data on 14 compounds can be found in patent US20060079453A1, “Hla binding peptides and their uses” (priority 2002, published 2006).

Some targets named below: HLA-DR DRB3*0101 (DR52) (Homo sapiens, UniProt P01903+P79483); HLA-DR DRB4*0101 (DR53) (Homo sapiens, UniProt P01903+P13762, G164S); HLA-DR DRB1*1101 (DR11) (Homo sapiens, UniProt P01903+P01911, A100R/A169T/A87E/I96F/K41T/L162R/M171V/P40S/Q125H/Q178H/Q39Y/Q99D/R42S/S66Y/T262R/V115G/W38E); HLA-DR DRB5*0101 (DR51) (Homo sapiens, UniProt P01903+Q30154); HLA-DR DRB1*1302 (DR13) (Homo sapiens, UniProt P01903+P01911, A100E/A169T/K41T/L162R/M171V/P40S/Q125H/Q178H/Q39Y/Q99D/R42S/S66N/T262R/V115G/W38E/Y61H); HLA-DR DRB1*1501 (DR15) (Homo sapiens, UniProt P01903+P01911); HLA-DR DRB1*0802 (DR8) (Homo sapiens, UniProt P01903+P01911, A100R/A103L/A169T/F76Y/H45Y/I96F/K41T/L162R/M171V/P40S/Q125H/Q178H/Q39Y/Q99D/R218S/R42G/S66Y/V115G/W38E); HLA-DR DRB1*0301 (DR3) (Homo sapiens, UniProt P01903+P01911, A100K/A102G/A103R/A169T/F55Y/I96L/K41T/L162R/M171V/P40S/Q125H/Q178H/Q39Y/R42S/S66N/T106N/T262R/W38E/Y61H).

Holding throughout (experiment): biochemical
What all share (assay type): binding

The target of another test is HLA-DR DRB1*0101 (DR1) (Homo sapiens, UniProt P01903+P01911, A100R/D57E/F55L/F60I/F76Y/I96L/L162R/M171V/P40L/Q125E/R42F/V115G/Y59C). The note with it: DRB1 *0101.
In another test the target is HLA-DR DRB1*0401 (DR4) (Homo sapiens, UniProt P01903+P01911, A100K/A169T/F76Y/I96L/K127E/L162R/M171V/N62H/P40V/Q125Y/R42H/S133A/S149N/S66Y/V115G/V209L/W38E). Conditions: DRB1 *0401.
The next test has as its target HLA-DR DRB1*0901 (DR9) (Homo sapiens, UniProt P01903+P01911, A100R/A103E/D57H/D86V/F55Y/F60I/F76Y/I96F/K127E/L162R/M171V/P40D/Q125H/Q99R/R33Q/R42F/S133A/S66N/T210M/V115G/W38K/Y107V/Y59G/Y89S). The note with it: DRB1 *0901.
A further test concerns the target HLA-DR DRB1*0701 (DR7) (Homo sapiens, UniProt P01903+P01911, A100R/A102G/A103Q/D57E/D86V/E43K/F76Y/K127E/L162R/M171V/P40G/Q125H/Q99D/R33Q/R42Y/R54Q/S133A/S66F/T210M/V115G/Y107V/Y59L/Y89S). Conditions: DRB1 *0701.

Read-outs that look alike come from different tables or passages of the source. No end group written: not given here.

HLA-DR DRB1*0301 (DR3), sequence (P01903 26-254 limits assumed, other chains not shown): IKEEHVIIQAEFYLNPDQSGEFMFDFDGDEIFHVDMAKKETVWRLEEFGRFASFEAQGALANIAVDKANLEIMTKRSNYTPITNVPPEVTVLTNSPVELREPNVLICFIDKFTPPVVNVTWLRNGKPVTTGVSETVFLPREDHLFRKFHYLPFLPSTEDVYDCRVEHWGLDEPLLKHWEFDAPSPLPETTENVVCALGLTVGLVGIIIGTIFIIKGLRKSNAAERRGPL
HLA-DR DRB1*1302 (DR13), sequence (P01903 26-254 limits assumed, other chains not shown): as above
HLA-DR DRB1*1101 (DR11), sequence (P01903 26-254 limits assumed, other chains not shown): as above

LWQLNGRLEYCLKDR had an IC50 on HLA-DR DRB3*0101 (DR52) of 29 µM.

On to MTNLAALFPPEGVSI, for which the IC50 on HLA-DR DRB4*0101 (DR53) (read-out: DRB4 *0101) is 4.61 µM; on HLA-DR DRB3*0101 (DR52) (read-out: DRB3 *0101), > 8.83 µM; at HLA-DR DRB1*1101 (DR11) (read-out: DRB1 *1101), 141 µM; on HLA-DR DRB5*0101 (DR51) (read-out: DRB5 *0101), 141 µM.

With TAWTIYRVEILRNFY, the IC50 is 0.072 µM at HLA-DR DRB1*1302 (DR13) (read-out: DRBI *1302); 0.026 µM at HLA-DR DRB4*0101 (DR53) (read-out: DRB4 *0101); 14.4 µM on HLA-DR DRB3*0101 (DR52) (read-out: DRB3 *0101); 5.05 µM at HLA-DR DRB1*1101 (DR11) (read-out: DRB1 *1101); 0.518 µM at HLA-DR DRB5*0101 (DR51) (read-out: DRB5 *0101).

On to KPAVYTKVVHYRKWI, for which the IC50 on HLA-DR DRB3*0101 (DR52) (read-out: DRB3 *0101) was 7.19 µM; on HLA-DR DRB1*1501 (DR15) (read-out: DRBI *1501), 0.401 µM; on HLA-DR DRB5*0101 (DR51) (read-out: DRB5 *0101) it was 0.023 µM.

For FVNQHLTGSHLVEAL, the IC50 was 94.5 µM at HLA-DR DRB3*0101 (DR52) (read-out: DRB3 *0101), 0.799 µM on HLA-DR DRB1*1501 (DR15) (read-out: DRBI *1501), > 10.5 µM on HLA-DR DRB1*1101 (DR11) (read-out: DRB1 *1101) and > 43.3 µM at HLA-DR DRB5*0101 (DR51) (read-out: DRB5 *0101).

Turning to DKAVSGLRSLTTLLR, the IC50 was 0.013 µM on HLA-DR DRB1*0101 (DR1); 0.187 µM at HLA-DR DRB1*1302 (DR13) (DRBI *1302); 1.01 µM on HLA-DR DRB1*0401 (DR4); 2.01 µM on HLA-DR DRB4*0101 (DR53) (DRB4 *0101); 16.4 µM against HLA-DR DRB1*0802 (DR8); 4.33 µM against HLA-DR DRB1*0301 (DR3). Besides, the IC50 on HLA-DR DRB1*0901 (DR9) is > 78.9 µM; on HLA-DR DRB1*1501 (DR15) (DRBI *1501) it was 0.06 µM; against HLA-DR DRB1*1101 (DR11) (DRB1 *1101), 0.052 µM; against HLA-DR DRB5*0101 (DR51) (DRB5 *0101) it was 0.104 µM.

On to IFAIFRQDSSSTGWN, for which the IC50 against HLA-DR DRB1*1302 (DR13) (DRBI *1302) was 0.775 µM; against HLA-DR DRB1*0401 (DR4), 0.0096 µM; at HLA-DR DRB4*0101 (DR53) (DRB4 *0101), 0.03 µM; against HLA-DR DRB1*0802 (DR8), 4.73 µM; on HLA-DR DRB1*0301 (DR3), 0.402 µM; on HLA-DR DRB1*0901 (DR9) it was 0.97 µM. Besides, the IC50 against HLA-DR DRB1*1501 (DR15) (DRBI *1501) came to 0.204 µM; against HLA-DR DRB1*1101 (DR11) (DRB1 *1101) it was 4.56 µM; on HLA-DR DRB5*0101 (DR51) (DRB5 *0101) it was 109 µM.

Turning to RQEILDLWVYHTQGF, the IC50 against HLA-DR DRB1*0401 (DR4) amounted to 5.93 µM; against HLA-DR DRB1*0802 (DR8), 2.73 µM; against HLA-DR DRB1*0301 (DR3), 10.5 µM; against HLA-DR DRB1*0701 (DR7), 3.05 µM; against HLA-DR DRB1*0901 (DR9), 3.68 µM; on HLA-DR DRB1*1501 (DR15) (DRBI *1501) it was 0.985 µM. Also, the IC50 against HLA-DR DRB1*1101 (DR11) (DRB1 *1101) was 11.1 µM; at HLA-DR DRB5*0101 (DR51) (DRB5 *0101), > 20.5 µM.

For the compound ALQAQKEAISPPDAA, the IC50 on HLA-DR DRB3*0101 (DR52) (read-out: DRB3 *0101) is > 91.7 µM.

Regarding `CC[C@H](C)[C@H](NC(=O)[C@@H](N)CCC(N)=O)C(=O)N[C@@H](Cc1ccc(O)cc1)C(=O)N[C@H](C(=O)N[C@@H](C)C(=O)N[C@@H](C)C(=O)N[C@@H](Cc1ccccc1)C(=O)N[C@H](C(=O)N[C@H](C(=O)N[C@@H](CCC(N)=O)C(=O)N[C@@H](C)C(=O)N[C@@H](C)C(=O)N[C@@H](C)C(=O)N[C@@H](CCC(=O)O)C(=O)N[C@H](C(=O)O)[C@@H](C)O)C(C)C)[C@@H](C)O)C(C)C`, the IC50 was found to be 0.0016 µM on HLA-DR DRB1*0101 (DR1); 0.0016 µM at HLA-DR DRB1*0401 (DR4); 0.05 µM on HLA-DR DRB4*0101 (DR53) (DRB4 *0101); 0.102 µM on HLA-DR DRB1*0802 (DR8); 26.6 µM on HLA-DR DRB1*0301 (DR3); 0.324 µM on HLA-DR DRB1*0701 (DR7). In addition, the IC50 against HLA-DR DRB1*0901 (DR9) is 0.065 µM; on HLA-DR DRB1*1501 (DR15) (DRBI *1501), 0.252 µM; on HLA-DR DRB1*1101 (DR11) (DRB1 *1101) it was 0.034 µM; against HLA-DR DRB5*0101 (DR51) (DRB5 *0101), 0.216 µM.

As to GAAVVHEIVRSFGTL, on HLA-DR DRB3*0101 (DR52), the IC50 was 0.788 µM.

For the compound VAQVRGGNIVFELANS, the IC50 is 2.8 µM at HLA-DR DRB1*1302 (DR13) (read-out: DRBI *1302); 0.1 µM at HLA-DR DRB4*0101 (DR53) (read-out: DRB4 *0101); > 21.9 µM at HLA-DR DRB3*0101 (DR52) (read-out: DRB3 *0101); > 50 µM on HLA-DR DRB1*1101 (DR11) (read-out: DRB1 *1101); 64.4 µM at HLA-DR DRB5*0101 (DR51) (read-out: DRB5 *0101).

Regarding LGFFPDHQLDPAFRAN, the IC50 on HLA-DR DRB3*0101 (DR52) (read-out: DRB3 *0101) worked out at 1.45 µM.

YLVTGERGFFYTKPT: the IC50 on HLA-DR DRB4*0101 (DR53) (read-out: DRB4 *0101) is 27.9 µM; on HLA-DR DRB3*0101 (DR52) (read-out: DRB3 *0101), 9.57 µM; on HLA-DR DRB1*1501 (DR15) (read-out: DRBI *1501) it was > 21 µM.
